Test results published in patent publication US20260294874A1, “COMPOSITIONS COMPRISING MODULATORS OF RIBONUCLEOPROTEIN GRANULE FORMATION AND DISSOLUTION AND METHODS OF USE THEREOF” (University of Virginia Patent Foundation, priority 2023, published 2026).
“Also recorded” adds a separate entry of the source. Values belong to the compound of their own block, whether it stands above or below them.

Key:
Type in all cases: cell-based
HSPB1 K123 = target: T1, HSPB1 K123 (Homo sapiens, UniProt P04792); test: Competitive ABPP SILAC LC-MS/MS chemical proteomics, HSPB1 K123; conditions: 25 μM, 2 h; HHS-465 100 μM; DMSO (light)/ligand (heavy)
T1 construct: endogenous in cells; host or cells: SILAC cells (HeLa and HEK293T are named; HeLa inferred for HSPB1/EKT179, as SG modulators were profiled in HeLa)
Procedure: (§1) Preparation of SILAC proteomes for LC-MS/MS analysis. SILAC cell proteomes were fractionated to collect the supernatant and normalized to 2.3 mg/mL in PBS. ‘Heavy’ and ‘light’ proteomes were aliquoted (427 μL) and probe-modified proteins were conjugated to desthiobiotin-PEG-3-azide using copper-catalyze azide-alkyne cycloaddition, trypsinized into peptides using Trypsin/Lys-C Mix (Catalog No. V5071; Promega Corporation, Madison, Wisconsin, United States of America), enriched using PIERCE™ Avidin Agarose brand beads (Catalog No. 20219; Thermo Fisher Scientific Inc., Waltham, Massachusetts. United States of America), and prepared for nano-electrospray ionization-LC-MS/MS analysis as previously described in Hahm et al., 2020.
(§2) Data Analysis—Chemical Proteomics. Identification and analysis of peptides and proteins using LC-MS was accomplished using bioinformatics software and quality control parameter protocols as previously described in Hahm et al., 2020.
(§3) We performed quantitative liquid-chromatography tandem mass spectrometry (LC-MS/MS) chemical proteomic studies to identify the target protein and binding site(s) of SuTEx fragments with RNP granule modulating activity. […]
(§4) We detected ~8,700 probe-modified sites (Tyr and Lys) in our aggregate HeLa and HEK293T chemical proteomic analyses. […]

recombinant EDC3 = target: T2, recombinant EDC3 (Homo sapiens, UniProt Q96F86); test: Competitive gel-based ABPP, HHS-465 probe labeling of recombinant EDC3 in HEK293T cells; conditions: 25 μM, 2 h (FIG. 4F); 0.1-100 μM for concentration dependence (FIG. 4D); HHS-465 100 μM, 1 h, RT
T2 construct: FLAG; expressed in transfected cells; host or cells: HEK293T
T2 sequence (Q96F86 1-508): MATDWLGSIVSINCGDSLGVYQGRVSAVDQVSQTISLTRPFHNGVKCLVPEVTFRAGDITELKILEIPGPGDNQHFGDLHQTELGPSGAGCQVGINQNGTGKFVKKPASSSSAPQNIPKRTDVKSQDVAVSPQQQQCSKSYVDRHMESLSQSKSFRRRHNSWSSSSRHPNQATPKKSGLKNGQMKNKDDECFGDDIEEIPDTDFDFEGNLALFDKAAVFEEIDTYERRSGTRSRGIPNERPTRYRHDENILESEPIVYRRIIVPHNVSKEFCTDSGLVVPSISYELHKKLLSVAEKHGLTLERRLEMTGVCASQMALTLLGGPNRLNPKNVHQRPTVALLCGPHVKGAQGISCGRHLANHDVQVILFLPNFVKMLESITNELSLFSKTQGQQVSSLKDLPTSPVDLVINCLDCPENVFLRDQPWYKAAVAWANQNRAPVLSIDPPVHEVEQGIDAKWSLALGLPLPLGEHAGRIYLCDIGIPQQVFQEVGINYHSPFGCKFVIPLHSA
From the text: FIGS. 4A-4F. Discovery of a SuTEx ligand for the hyper-reactive EDC3 Y475 site. (FIG. 4A) Overlap of liganded sites from SuTEx PB modulators with reported RNA granule induction-sensitive lysine and tyrosine sites (RISKYs; Ciancone et al., 2022). The five overlapping sites were further compared to previously reported hyper-RISKY sites (Ciancone et al., 2022) resulting in the identification of the tyrosine-475 (Y475) site on EDC3. (FIG. 4B) Representative immunofluorescence images depicting decreased PBs and increased SGs in AHL-030-treated cells under stress conditions. EKT235 is shown as a negative control. See FIGS. 8 and 9 for additional details. (FIG. 4C) Representative MS1 extracted ion chromatograms (EICs) showing EDC3 Y475 (i.e., amino acid 2 of the peptide sequence […]; SEQ ID NO: 1, which corresponds to amino acids 474-500 of the human enhancer of mRNA-decapping protein 3 isoform 1 polypeptide of GENBANK® Accession No. NP_001135915.1) is liganded by AHL-030 but not EKT235 [SILAC ratio or SR>2 for DMSO vehicle (light, red)/SuTEx fragment ligand (heavy, blue) treatment conditions]. Enrichment (HHS-465/DMSO) and 1:1 (HHS-465/HHS-465) controls are shown. SRs are calculated as the integrated area under the curve ratio of light-to-heavy peptide. Data are representative of n=2-3 biologically independent replicates. […] EDC3-expressing HEK293T cells were pretreated with varying concentrations of AHL-030 (0.1-100 μM, 2 hours) followed by lysis and probe labeling of soluble proteomes with HHS-465 (100 μM, 1 h, RT). The in situ IC50 for EDC3 probe labeling inhibition by AHL-030 was estimated to be ~6 μM. […] Data shown are mean±SEM and representative of n=3 biologically independent replicates. […] Western blots comparing recombinant expression of EDC3 (α-FLAG) and loading controls (α-GAPDH) are shown. Data are representative of n=2 biologically independent replicates.
Among the candidate PB-modulating SuTEx compounds, we focused on AHL-030 because of its PB-inhibitory, SG-enhancing activity in stressed cells and ability to ligand the EDC3 Y475 site (SR >2; FIGS. 4B and 4C). Importantly, we identified a restricted number of reproducibly liganded sites (7 in total) in addition to EDC3 Y475 in chemoproteomic profiling studies of AHL-030 (FIG. 12). We further confirmed AHL-030 as an EDC3 ligand using competitive activity-based protein profiling (ABPP; Grams & Hsu, 2022). Recombinant EDC3-expressing HEK293T cells were treated with a panel of RNP granule modulators including AHL-030 and the negative control compound EKT235 to evaluate structure-activity relationships (SAR, 25 μM compounds, 2 h). Cells were lysed and soluble proteomes labeled with HHS-465 (100 μM, 1 h, RT) followed by CuAAC with rhodamine-azide, SDS-PAGE and in-gel fluorescence scanning. […] Using the in vitro IC50, we calculated the lipophilic efficiency (LipE) of AHL-030 to be ~7, which falls in the range of acceptable lipophilicity in relation to potency (Leeson & Springthorpe, 2007).

EDC3 Y475 = target: T3, EDC3 Y475 (Homo sapiens, UniProt Q96F86); test: Competitive ABPP SILAC LC-MS/MS chemical proteomics, EDC3 Y475; conditions: glucose-deprived HEK293T cells, 25 μM, 2 h
T3 sequence (Q96F86 1-508): T2 sequence (Q96F86 1-508)
Procedure: as §1, §2
We performed quantitative liquid-chromatography tandem mass spectrometry (LC-MS/MS) chemical proteomic studies to identify the target protein and binding site(s) of SuTEx fragments with RNP granule modulating activity. […] SILAC light and heavy cells (HEK293T and HeLa) were treated with experimental conditions used for phenotypic screening including the SuTEx ligand pretreatment (25 μM, 2 h) followed by PB (glucose-deprivation, 15 min) and SG induction (75 μM [COMPOUND LEFT OUT], 30 min). Afterwards, cells were lysed, soluble proteomes treated with HHS-465 SuTEx probe (100 μM, 1 h), a global Tyr/Lys-reactive probe used previously for RNP granule investigations (Ciancone et al., 2022), and samples processed to probe-modified peptides for LC-MS/MS analysis as previously reported (Huang et al., 2021), shown in FIG. 10.
as §4

HNRPK Y72 = target: T4, HNRPK Y72 (Homo sapiens, UniProt P61978); test: Competitive ABPP SILAC LC-MS/MS chemical proteomics, HNRPK Y72; conditions: DMSO (light)/ligand (heavy)
T4 construct: liganded site Y72
Procedure: as §1, §2, §3, §4

[1] = tested on: stress granules (G3BP1 foci) in HeLa cells; test: Immunofluorescence phenotypic screen for stress granules (α-G3BP1) in stressed HeLa cells; conditions: 2 h
Procedure: SuTEx compound treatments. Prior to treatments, cells were washed twice with warm phosphate-buffered saline (PBS) and exchanged with serum-free DMEM (supplemented with 1% L-glutamine) for at least 30 minutes at 37° C. with 5% CO2. Compounds were then added as 1000×DMSO stocks (10 μL for 10 cm dishes and 3 μL for 6-well dishes), plates were mixed gently, and cells were incubated for two hours. All compounds were thoroughly vortexed and sonicated for five minutes prior to addition to ensure complete solvation. For microscopy experiments, cultures were seeded at 150,000 cells in 3 mL of DMEM in 6-well THERMO SCIENTIFIC™ BIOLITE™ brand microwell plates (Catalog No. 12556004; Thermo Fisher Scientific Inc., Waltham, Massachusetts. United States of America). For collection, media was aspirated, and cells were washed once with cold PBS before scraping from plates. Cells were centrifuged at 500×g at 4° C. for 5 minutes and supernatant was removed. Cell pellets were resuspended in cold PBS (1 mL) and centrifuged at 1,400×g at 4° C. for 3 minutes. Supernatant was again removed, and pellets were then snap-frozen in liquid nitrogen and stored at −80° C. until needed.
Immunofluorescence. Immunofluorescence (IF) of HEK293T cells was performed as previously described in Ciancone et al., 2022. HeLa cells were seeded at 9.0×10^4 in a 24-well plate with 12-mm glass coverslips. The next day, the cells were treated with 25 μM SuTEx probe for 2 hours in DMEM medium without FBS. The cells were then treated with 75 μM NaAsO2 for 30 minutes and fixed with 3% paraformaldehyde in PBS for 15 minutes at room temperature (RT) and washed with PBS twice. The fixed cells were permeabilized with PBST (0.1% Triton X-100) for 15 minutes at room temperature and blocked with 5% goat serum in PBST for 30 minutes at RT. The cells were incubated with anti-G3BP1 antibody H-10 (Catalog No. sc-365338 at 1:200 dilution; Santa Cruz Biotechnology, Inc., Dallas, Texas, United States of America) for 2 hours at RT and washed with PBST (0.1% Tween-20) for 5 minutes three times. Next, cells were incubated with goat anti-mouse Alexa 594 antibody (Catalog No. 115-585-003 at 1:800 dilution; Jackson ImmunoResearch, West Grove, Pennsylvania, United States of America) for 30 minutes at RT. The cells were washed twice with PBST, stained with Hoechst 33342 (Catalog No. H3570 at […]; Thermo Fischer Scientific) in PBST for 5 minutes, and washed with PBS twice for 5 minutes. The coverslips were mounted in PROLONG™ Gold AntiFade Mountant (Catalog No. P36930, Thermo Fisher Scientific) and imaged using NIS Elements AR software and a Nikon Eclipse Ti microscope equipped with a ×100 objective and CMOS camera. […] A CellProfiler pipeline was developed to quantify the number of stress granules under each condition. Briefly, cells were recognized as blue^+ (nuclei) red^+ (G3BP1) objects, and the red^+ granules that meet the shape and size threshold were identified and counted. Cells on the border of linages were excluded from the analysis for more accurate quantification.
We used immunofluorescence (IF) detection for phenotypic screening of SuTEx compound activity on stress-induced PB and SG levels in cells (FIG. 1B). PBs were induced through glucose deprivation of HEK293T cells and detected by immunofluorescence with anti-enhancer of mRNA-decapping protein 4 (EDC4) as previously described (Kedersha & Anderson, 2007; Ciancone et al., 2022) (~4 vs 2 PBs/cell in −glucose and +glucose conditions, respectively; FIG. 8). EDC4 is an established PB marker for mammalian cells and is important for PB formation (Kedersha & Anderson, 2007; Luo et al., 2018). SGs were induced in HeLa cells by [COMPOUND LEFT OUT] treatments and detected by fluorescent staining with anti-Ras GTPase-activating protein-binding protein 1 (G3BP1) antibody (75 μM [COMPOUND LEFT OUT], 30 min; FIG. 9). G3BP1 foci have been used in previous IF studies to identify SGs in cells (Kedersha & Anderson, 2007). […]

T1 sequence (P04792 whole entry): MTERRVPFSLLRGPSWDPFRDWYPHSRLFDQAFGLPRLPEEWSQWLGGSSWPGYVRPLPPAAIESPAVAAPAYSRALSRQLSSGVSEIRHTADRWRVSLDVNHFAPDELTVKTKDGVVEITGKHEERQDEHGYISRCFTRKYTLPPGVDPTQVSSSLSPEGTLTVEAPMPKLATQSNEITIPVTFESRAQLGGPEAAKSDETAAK

- SILAC ratio (SR), HSPB1 K123 (HSPB1 K123): > 2
SMILES: O=S(=O)(C1CC1)n1cc(-c2cccc(F)c2)nn1 [EKT179, 1-(Cyclopropylsulfonyl)-4-(3-fluorophenyl)-1H-1,2,3-triazole]

- inhibition of HHS-465 probe labeling of recombinant EDC3 (in words) (recombinant EDC3): largely inactive
- liganding of EDC3 Y475 (in words) (EDC3 Y475): not
SMILES: O=S(=O)(C1CC1)n1cc(-c2ccc(-c3ccccc3)cc2)nn1 [EKT235, 4-([1,1′-Biphenyl]-4-yl)-1-(cyclopropylsulfonyl)-1H-1,2,3-triazole]

- SILAC ratio (SR), HNRPK Y72 (HNRPK Y72): > 2
SMILES: O=S(=O)(c1ccc(C(F)(F)F)cc1)n1cc(-c2ccc(F)cc2F)nn1 [EKT166, 4-(2,4-Difluorophenyl)-1-((4-(trifluo•·omethyl)phenyl)sulfonyl)-1H-1,2,3-triazole]
- effect on SGs (in words) ([1]; 25 μM): enriched activity; also recorded: inhibited SGs
- inhibition at 25 µM ([1]; Homo sapiens, read-out: reduction/inhibition of SGs/cell): > 70%
